ChEMBL document CHEMBL1201862, “PubChem BioAssay data set” (2004)
Calls of active or inactive are those of the source.

Key:
[1] = viability of uninfected HEp-2 cells – cell-based, HTS, cytotoxicity control for RSV inhibitor project, dose response (AID 2410); type: functional; details: human respiratory syncytial virus
Large T antigen = Large T antigen (Simian virus 40, UniProt P03070); type: functional, Betapolyomavirus macacae;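 further: Confirmatory-stage PubChem screen for compounds that inhibit SV40 T antigen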
[2] = biological target: Intestinal-type alkaline phosphatase (Mus musculus, UniProt P24822); assay: PubChem AID 488874; type: functional
[3] = biological target: T1, Intestinal-type alkaline phosphatase (Homo sapiens, UniProt P09923); assay: inhibition of human intestinal alkaline phosphatase – biochemical, luminescent, uHTS hits, set 2, dose response (AID 488793); type: functional
[4] = biological target: T1, Intestinal-type alkaline phosphatase; assay: Dose Response confirmation of uHTS hits from a small molecule inhibitors of human intestinal alkaline phosphatase via a luminescent assay. [Related pubchem assays (depositor defined):AID2544, AID2574]; type: functional
[5] = biological target: FAD-linked sulfhydryl oxidase ALR (Homo sapiens, UniProt P55789); assay: ALR-catalysed DTT oxidation blockers – biochemical, H2O2 detection, luminescence, cherry-pick, dose response (AID 493248)
[6] = biological target: T2, Alkaline phosphatase, tissue-nonspecific isozyme (Homo sapiens, UniProt P05186); assay: inhibition of tissue-nonspecific alkaline phosphatase – biochemical, dose response (AID 488882); type: functional
T2 sequence (P05186 whole entry): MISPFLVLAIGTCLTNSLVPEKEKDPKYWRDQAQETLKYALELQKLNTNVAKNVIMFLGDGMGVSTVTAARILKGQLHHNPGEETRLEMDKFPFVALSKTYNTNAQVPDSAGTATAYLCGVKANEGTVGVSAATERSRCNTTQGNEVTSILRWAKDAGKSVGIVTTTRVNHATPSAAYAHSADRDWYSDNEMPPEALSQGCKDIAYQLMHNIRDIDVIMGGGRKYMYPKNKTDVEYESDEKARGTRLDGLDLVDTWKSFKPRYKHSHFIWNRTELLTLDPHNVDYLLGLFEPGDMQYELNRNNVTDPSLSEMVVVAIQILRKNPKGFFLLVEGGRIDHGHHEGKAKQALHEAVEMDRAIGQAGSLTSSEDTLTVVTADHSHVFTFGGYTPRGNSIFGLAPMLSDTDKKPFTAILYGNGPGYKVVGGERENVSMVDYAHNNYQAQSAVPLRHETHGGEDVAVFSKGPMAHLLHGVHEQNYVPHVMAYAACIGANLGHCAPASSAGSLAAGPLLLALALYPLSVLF

Vero = assay: viability of Vero cells under compound – cytotoxicity control for flavivirus capping enzyme inhibitors (AID 588742); type: functional; details: Chlorocebus sabaeus
Albumin = Albumin (Bos taurus, UniProt P02769); assay: Counterscreen for inhibitors of T-cell receptor (TCR)-CD3 interaction: Fluorescence-based biochemical high throughput dose response assay to identify inhibitors of T-cell receptor (TCR)-CD3 interaction using a TAMRA-labeled BSA probe.; type: functional
Caspase-6 = biological target: T3, Caspase-6 (Homo sapiens, UniProt P55212); assay: inhibition of CASP6 peptide cleavage – biochemical, VEID-R110 fluorescence, cherry-pick, dose response (AID 720632)
T3 sequence (P55212 whole entry): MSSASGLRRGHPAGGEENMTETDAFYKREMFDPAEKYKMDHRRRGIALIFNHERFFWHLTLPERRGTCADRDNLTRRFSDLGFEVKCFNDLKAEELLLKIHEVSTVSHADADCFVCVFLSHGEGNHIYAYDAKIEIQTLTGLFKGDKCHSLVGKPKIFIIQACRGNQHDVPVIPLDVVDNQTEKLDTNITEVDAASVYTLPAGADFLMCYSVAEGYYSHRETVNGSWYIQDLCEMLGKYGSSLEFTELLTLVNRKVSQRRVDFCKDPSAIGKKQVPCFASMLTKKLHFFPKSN

[7] = biological target: T4, Histone-lysine N-methyltransferase NSD2 (Homo sapiens, UniProt O96028); type: biochemical
T4 sequence (O96028 whole entry): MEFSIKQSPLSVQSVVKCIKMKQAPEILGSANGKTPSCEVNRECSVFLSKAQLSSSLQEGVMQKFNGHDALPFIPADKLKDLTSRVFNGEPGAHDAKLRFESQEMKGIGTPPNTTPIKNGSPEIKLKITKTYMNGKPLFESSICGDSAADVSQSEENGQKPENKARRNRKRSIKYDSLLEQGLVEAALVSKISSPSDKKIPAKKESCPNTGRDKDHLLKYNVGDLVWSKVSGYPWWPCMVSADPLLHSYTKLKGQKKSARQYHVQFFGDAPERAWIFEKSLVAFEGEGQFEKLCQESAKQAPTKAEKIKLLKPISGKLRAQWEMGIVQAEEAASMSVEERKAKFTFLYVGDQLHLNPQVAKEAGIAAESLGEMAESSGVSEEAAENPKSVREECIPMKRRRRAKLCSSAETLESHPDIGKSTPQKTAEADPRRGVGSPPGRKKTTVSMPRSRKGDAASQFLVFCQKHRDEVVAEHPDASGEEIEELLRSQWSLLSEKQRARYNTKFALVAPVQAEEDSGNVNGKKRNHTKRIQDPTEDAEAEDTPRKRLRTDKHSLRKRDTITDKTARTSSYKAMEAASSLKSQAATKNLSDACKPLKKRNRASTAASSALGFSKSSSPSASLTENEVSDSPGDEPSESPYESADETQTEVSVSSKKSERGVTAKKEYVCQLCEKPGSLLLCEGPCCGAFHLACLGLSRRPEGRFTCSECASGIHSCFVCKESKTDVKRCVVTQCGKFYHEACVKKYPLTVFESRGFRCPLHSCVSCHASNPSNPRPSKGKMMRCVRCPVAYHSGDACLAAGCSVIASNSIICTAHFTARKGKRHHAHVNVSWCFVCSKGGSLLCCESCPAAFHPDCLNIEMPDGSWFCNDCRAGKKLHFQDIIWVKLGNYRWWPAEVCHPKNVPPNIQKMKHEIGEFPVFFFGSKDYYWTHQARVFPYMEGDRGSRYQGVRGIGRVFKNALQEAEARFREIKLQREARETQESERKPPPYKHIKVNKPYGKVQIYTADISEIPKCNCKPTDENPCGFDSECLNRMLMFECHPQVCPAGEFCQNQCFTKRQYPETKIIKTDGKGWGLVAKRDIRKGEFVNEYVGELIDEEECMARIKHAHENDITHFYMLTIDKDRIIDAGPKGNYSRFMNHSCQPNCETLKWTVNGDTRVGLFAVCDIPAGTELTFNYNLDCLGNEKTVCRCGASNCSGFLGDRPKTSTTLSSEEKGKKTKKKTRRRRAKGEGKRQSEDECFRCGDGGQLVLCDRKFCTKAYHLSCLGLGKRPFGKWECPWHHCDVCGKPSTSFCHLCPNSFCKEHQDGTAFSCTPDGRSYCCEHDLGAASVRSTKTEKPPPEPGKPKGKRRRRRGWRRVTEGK

[8] = biological target: T5, Dual specificity protein phosphatase 3 (Homo sapiens, UniProt P51452); assay: SAR VHR1 absorbance Assay for In Vitro dose response studies. [Related pubchem assays (depositor defined):AID1654, AID1661, AID1878, AID1992, AID2004]
[9] = biological target: T5, Dual specificity protein phosphatase 3; assay: SAR VHR1 Fluorescent Assay for In Vitro dose response studies. [Related pubchem assays (depositor defined):AID1654, AID1661, AID1878, AID1992, AID2004, AID2070, AID2085]; type: functional
[10] = biological target: T5, Dual specificity protein phosphatase 3; assay: MOA VHR1 Fluorescent secondary assay for identification of redox-state modulating compounds. [Related pubchem assays (depositor defined):AID1654, AID1661, AID1878, AID1957]
[11] = biological target: T6, Tyrosine-protein phosphatase non-receptor type 7 (Homo sapiens, UniProt P35236); assay: redox-active compounds inhibiting HePTP phosphatase – biochemical, fluorescence, mechanism study (AID 2068); type: functional
T6 sequence (P35236 whole entry): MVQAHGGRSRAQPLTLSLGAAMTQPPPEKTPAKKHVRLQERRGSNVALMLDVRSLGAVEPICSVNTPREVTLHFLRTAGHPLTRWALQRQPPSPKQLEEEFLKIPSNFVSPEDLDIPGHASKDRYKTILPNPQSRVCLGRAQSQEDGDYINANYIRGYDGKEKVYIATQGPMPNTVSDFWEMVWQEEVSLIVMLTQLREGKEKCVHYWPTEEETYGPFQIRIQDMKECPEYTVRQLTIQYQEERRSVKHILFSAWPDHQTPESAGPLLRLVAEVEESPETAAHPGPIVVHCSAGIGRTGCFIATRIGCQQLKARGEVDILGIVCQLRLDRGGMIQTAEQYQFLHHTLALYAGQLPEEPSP

[12] = biological target: Dual specificity protein phosphatase 6 (Rattus norvegicus, UniProt Q64346); type: functional;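 further: confirmatory in vitro dose-response testing of MKP-3 inhibition; recombinant His-tagged MKP-3 made in E. coli BL21 with OMFP substrate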
[13] = biological target: T7, Polyadenylate-binding protein 1 (Homo sapiens, UniProt P11940); assay: MLLE binding blockers, Cy5 peptide tracer – biochemical, fluorescence polarization, Cy5-PAM2 peptide, secondary, miRNA deadenylation inhibitor project, dose response (AID 602260); type: functional; details: read-out: IC50_Mean
[14] = biological target: T7, Polyadenylate-binding protein 1; assay: MLLE domain peptide-binding blockers, IC50 – biochemical, fluorescence polarization, FITC-PAM2 peptide, dose response (AID 602259); type: functional; details: read-out: IC50_Mean

T5 sequence (P51452 whole entry): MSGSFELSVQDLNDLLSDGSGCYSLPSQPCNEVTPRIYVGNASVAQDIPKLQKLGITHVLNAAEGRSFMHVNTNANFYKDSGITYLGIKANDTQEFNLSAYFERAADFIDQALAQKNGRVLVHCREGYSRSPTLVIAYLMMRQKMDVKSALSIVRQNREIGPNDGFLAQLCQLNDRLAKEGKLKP
T7 sequence (P11940 whole entry, the tested form may be a part): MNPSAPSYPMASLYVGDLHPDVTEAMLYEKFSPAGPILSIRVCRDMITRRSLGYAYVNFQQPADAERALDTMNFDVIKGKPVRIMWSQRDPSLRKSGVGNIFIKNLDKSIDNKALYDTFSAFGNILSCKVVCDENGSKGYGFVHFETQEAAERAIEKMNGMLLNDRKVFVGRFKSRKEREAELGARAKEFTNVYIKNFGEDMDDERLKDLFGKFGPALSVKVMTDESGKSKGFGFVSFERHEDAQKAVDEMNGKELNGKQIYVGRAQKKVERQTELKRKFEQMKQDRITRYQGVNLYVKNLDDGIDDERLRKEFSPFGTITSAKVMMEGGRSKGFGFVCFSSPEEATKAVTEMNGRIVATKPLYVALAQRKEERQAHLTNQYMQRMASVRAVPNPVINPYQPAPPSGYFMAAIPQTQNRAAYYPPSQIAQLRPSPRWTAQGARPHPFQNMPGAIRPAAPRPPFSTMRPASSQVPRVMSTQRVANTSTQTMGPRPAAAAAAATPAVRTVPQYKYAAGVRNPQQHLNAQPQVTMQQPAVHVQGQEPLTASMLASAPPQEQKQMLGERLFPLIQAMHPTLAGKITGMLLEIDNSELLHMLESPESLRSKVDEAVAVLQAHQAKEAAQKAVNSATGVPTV
T1 sequence (P09923 whole entry): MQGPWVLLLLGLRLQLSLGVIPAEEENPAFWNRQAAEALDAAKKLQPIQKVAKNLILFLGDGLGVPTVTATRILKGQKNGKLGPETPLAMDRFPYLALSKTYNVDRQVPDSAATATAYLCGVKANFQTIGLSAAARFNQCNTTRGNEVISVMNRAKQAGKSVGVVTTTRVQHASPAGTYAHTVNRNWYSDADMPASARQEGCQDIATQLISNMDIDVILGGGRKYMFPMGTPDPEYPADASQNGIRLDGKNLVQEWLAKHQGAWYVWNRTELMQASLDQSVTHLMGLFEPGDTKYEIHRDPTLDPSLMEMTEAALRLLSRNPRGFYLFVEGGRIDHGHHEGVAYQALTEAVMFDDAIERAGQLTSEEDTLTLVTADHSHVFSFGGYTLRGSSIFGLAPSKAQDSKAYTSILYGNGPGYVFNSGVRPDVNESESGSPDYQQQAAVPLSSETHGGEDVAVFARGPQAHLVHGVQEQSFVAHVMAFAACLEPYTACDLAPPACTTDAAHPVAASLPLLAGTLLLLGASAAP
Sequence of Albumin (P02769 whole entry): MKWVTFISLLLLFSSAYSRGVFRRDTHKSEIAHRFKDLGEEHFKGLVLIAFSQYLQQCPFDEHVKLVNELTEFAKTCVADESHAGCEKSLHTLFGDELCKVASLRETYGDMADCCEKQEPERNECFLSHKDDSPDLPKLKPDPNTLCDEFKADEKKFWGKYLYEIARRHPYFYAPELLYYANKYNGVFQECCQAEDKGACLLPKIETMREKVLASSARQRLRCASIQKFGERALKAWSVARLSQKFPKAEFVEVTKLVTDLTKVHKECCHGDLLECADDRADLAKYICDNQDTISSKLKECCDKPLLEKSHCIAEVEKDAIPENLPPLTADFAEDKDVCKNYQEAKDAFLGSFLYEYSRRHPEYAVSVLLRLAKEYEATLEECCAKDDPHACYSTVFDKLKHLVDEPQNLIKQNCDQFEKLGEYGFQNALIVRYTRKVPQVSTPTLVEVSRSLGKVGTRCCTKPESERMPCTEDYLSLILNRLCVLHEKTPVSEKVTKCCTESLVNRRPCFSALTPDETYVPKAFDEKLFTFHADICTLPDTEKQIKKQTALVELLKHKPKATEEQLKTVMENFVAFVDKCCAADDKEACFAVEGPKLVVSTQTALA
Sequence of Intestinal-type alkaline phosphatase (Mus musculus, UniProt P24822) (P24822 whole entry): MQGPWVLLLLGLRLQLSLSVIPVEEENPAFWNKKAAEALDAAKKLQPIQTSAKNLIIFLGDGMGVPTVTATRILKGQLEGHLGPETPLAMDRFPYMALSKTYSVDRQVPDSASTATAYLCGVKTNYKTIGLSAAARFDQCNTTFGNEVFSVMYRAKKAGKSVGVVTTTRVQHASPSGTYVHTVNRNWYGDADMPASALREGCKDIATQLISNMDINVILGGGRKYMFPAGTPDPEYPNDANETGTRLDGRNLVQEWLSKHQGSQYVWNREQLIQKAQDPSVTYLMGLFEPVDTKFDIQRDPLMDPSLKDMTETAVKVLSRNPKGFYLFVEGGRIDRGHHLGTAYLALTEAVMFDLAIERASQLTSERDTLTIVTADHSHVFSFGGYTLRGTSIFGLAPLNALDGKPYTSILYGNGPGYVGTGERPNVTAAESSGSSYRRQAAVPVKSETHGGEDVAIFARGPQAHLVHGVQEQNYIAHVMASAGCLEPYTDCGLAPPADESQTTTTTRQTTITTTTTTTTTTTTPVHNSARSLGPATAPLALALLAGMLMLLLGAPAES
Sequence of FAD-linked sulfhydryl oxidase ALR (P55789 whole entry): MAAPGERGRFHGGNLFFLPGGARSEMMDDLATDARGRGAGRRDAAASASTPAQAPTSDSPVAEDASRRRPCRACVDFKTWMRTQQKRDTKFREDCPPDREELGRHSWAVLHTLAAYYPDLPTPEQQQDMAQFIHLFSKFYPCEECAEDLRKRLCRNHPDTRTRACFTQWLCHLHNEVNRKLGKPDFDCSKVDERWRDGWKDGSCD
Sequence of Dual specificity protein phosphatase 6 (Q64346 whole entry): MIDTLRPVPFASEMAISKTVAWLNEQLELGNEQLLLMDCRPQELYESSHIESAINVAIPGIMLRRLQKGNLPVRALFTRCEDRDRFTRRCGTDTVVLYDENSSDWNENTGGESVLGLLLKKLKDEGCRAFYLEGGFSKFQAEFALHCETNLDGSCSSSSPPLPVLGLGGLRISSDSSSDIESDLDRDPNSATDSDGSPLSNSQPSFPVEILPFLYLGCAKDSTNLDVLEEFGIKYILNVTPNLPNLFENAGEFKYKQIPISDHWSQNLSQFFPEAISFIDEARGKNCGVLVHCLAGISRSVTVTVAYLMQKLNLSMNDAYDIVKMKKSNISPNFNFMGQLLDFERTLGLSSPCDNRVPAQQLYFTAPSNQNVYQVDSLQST
Sequence of Large T antigen (P03070 whole entry): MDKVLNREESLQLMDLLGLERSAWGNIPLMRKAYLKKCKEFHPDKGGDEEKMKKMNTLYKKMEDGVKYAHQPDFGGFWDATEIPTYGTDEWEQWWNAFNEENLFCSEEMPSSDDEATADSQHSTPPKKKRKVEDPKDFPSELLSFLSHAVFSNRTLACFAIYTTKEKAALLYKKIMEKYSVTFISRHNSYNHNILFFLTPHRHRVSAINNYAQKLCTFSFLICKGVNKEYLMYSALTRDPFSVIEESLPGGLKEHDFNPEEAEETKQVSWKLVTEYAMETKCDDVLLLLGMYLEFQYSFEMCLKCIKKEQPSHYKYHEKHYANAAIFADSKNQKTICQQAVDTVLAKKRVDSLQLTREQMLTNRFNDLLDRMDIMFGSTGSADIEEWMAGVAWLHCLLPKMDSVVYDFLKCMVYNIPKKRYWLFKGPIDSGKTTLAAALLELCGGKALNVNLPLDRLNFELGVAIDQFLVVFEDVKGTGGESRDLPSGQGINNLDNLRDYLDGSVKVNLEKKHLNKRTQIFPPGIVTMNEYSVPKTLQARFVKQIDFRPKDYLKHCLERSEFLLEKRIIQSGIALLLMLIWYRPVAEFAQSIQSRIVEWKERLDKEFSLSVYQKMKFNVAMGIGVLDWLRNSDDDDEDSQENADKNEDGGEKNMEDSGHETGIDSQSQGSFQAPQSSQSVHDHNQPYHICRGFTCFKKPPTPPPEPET

O=C1Nc2ccccc2/C1=N/N=C/c1ccc(O)c(O)c1
CC50 [1]: 22.4 µM (active) | IC50 (Large T antigen): 3.29 µM (active) | IC50 [2]: 4.79 µM (active) | IC50 [3]: 7.63 µM (active) | IC50 [4]: 7.95 µM (active) | AC50 [5]: 0.83 µM (active) | IC50 [6]: 3.29 µM (active) | CC50 (Vero): > 40 µM (active) | IC50 (Albumin): > 94.1 µM (inactive) | AC50 (Caspase-6): 0.226 µM (active) | AC50 [7]: 0.407 µM (active)

COc1cc(C(=S)N2CCC(C)CC2)ccc1O
IC50 [8]: > 100 µM (inactive) | IC50 [9]: 30.4 µM (active) | IC50 [10]: 1.21 µM (active) | IC50 [11]: 1.61 µM (active) | IC50 [12]: > 100 µM (inactive) | IC50 [13]: > 66 µM (inactive) | IC50 [14]: > 66 µM (inactive)
